In patent US20250144067A1, “PERSONALIZED STARVATION THERAPY FOR CANCER” (Faeth Therapeutics, Inc., priority 2021, published 2025):
Read-outs that look alike come from different tables or passages of the source.

How the values were obtained:
[1] = tested on: NCI-H292 lung cancer cells; experiment: FDA drug screening, complete media vs cholesterol-free media with simvastatin (TABLE 2); format: cell-based, human
[2] = tested on: NCI-H292 lung cancer cells; experiment: FDA drug screening, complete media vs cholesterol-free media without statin (TABLE 1); format: cell-based, human
[3] = NCI-H292 cells, cholesterol-free media with simvastatin 0.04 μM, cell growth value in FDA drug screen
[4] = NCI-H292 cells, complete media, cell growth value in FDA drug screen
[5] = complete media minus cholesterol-free media + simvastatin, >0 enhanced anti-cancer activity, about 0 neutral, <0 antagonist
[6] = Complete minus Cholesterol-free, >0 enhanced anti-cancer activity, about 0 neutral, <0 antagonist
[7] = NCI-H292 cells, cholesterol-free media without statin
[8] = NCI-H292 cells, FDA drug library screen, cholesterol-free media with simvastatin 0.04 μM
[9] = Complete minus Cholesterol-free, greater than 0 enhanced anti-cancer activity, about 0 neutral, below 0 antagonist
[10] = NCI-H292 cells, FDA drug library screen, cholesterol-free media without statin
[11] = NCI-H292 cells, FDA drug library screen, complete media
[12] = NCI-H292 cells, drug in cholesterol-free media with simvastatin 0.04 μM
[13] = NCI-H292 cells, drug in complete media
[14] = complete media vs cholesterol-free media + simvastatin (0.04 μM), […]
[15] = NCI-H292 cells, cholesterol-free media without statin, FDA drug library screen
[16] = NCI-H292 cells, complete media, FDA drug library screen
[17] = Complete minus Cholesterol-free, […]
[18] = complete media minus cholesterol-free media + simvastatin, […]
[19] = NCI-H292 cells, cholesterol-free media with simvastatin 0.04 μM, […]
[20] = NCI-H292 cells, complete media, […]
[21] = NCI-H292 cells in cholesterol-free media without statin
[22] = NCI-H292 cells in complete media
[23] = NCI-H292 cells, cholesterol-free media with simvastatin 0.04 μM, FDA drug library screen (TABLE 2)
[24] = NCI-H292 cells, complete media, FDA drug library screen (TABLE 2)
[25] = complete media minus cholesterol-free media + simvastatin (0.04 μM), >0 enhanced anti-cancer activity, about 0 neutral, <0 antagonist
[26] = Complete minus Cholesterol-free, greater than 0 enhanced anti-cancer activity, about 0 neutral, below 0 antagonists
[27] = complete media vs cholesterol-free media + simvastatin (0.04 μM), >0 enhanced anti-cancer activity, about 0 neutral, <0 antagonist
[28] = complete vs cholesterol-free media, >0 enhanced anti-cancer activity, about 0 neutral, <0 antagonist

With Doxylamine (succinate) the “Cholesterol-free media + simvastatin (0.04 μM)” value [1, 3] was 1.024, the “Complete Media” value [1, 4] was 1.092 and the Difference [1, 5] was 0.07. For the same substance, the Difference [2, 6] was −0.30, the Cholesterol-free [2, 7] was 1.101 and the Complete ([2]; NCI-H292 cells, complete media) was 0.8034.
For Econazole (nitrate), the “Cholesterol-free media + simvastatin (0.04 μM)” value [1, 8] was 0.1971, the Difference [1, 5] was 0.88 and the Difference [2, 9] was −0.13. The Cholesterol-free [2, 10] was 0.9667 and the Complete [2, 11] was 0.8375.
In the case of Edoxaban (tosylate monohydrate), the “Cholesterol-free media + simvastatin (0.04 μM)” value [1, 12] is reported as 1.271, the “Complete Media” value [1, 13] is reported as 1.053 and the Difference [1, 14] is reported as −0.22. For the same substance, the Cholesterol-free [2, 15] was 0.765, the Complete [2, 16] was 0.9385 and the Difference ([2]; complete vs cholesterol-free media, […]) was 0.17.
For Eliglustat (hemitartrate), the “Cholesterol-free media + simvastatin (0.04 μM)” value [1, 12] was 0.9268, the “Complete Media” value [1, 13] was 0.7576 and the Difference [1, 14] was −0.17. It also gave a Difference [2, 17] of −0.24, a Cholesterol-free [2, 7] of 0.8345 and a Complete ([2]; NCI-H292 cells, complete media) of 0.5954.
Emamectin (Benzoate) was tested, and the “Cholesterol-free media + simvastatin (0.04 μM)” value [1, 8] was 0.006354, the “Complete Media” value [1, 11] was 0.4189 and the Difference [1, 18] was 0.41. The Difference [2, 17] was 0.02, the Cholesterol-free [2, 15] was 0.001259 and the Complete [2, 16] was 0.01673.
With Enalapril (maleate) the “Cholesterol-free media + simvastatin (0.04 μM)” value [1, 8] was 1.132, the “Complete Media” value [1, 11] was 1.317 and the Difference [1, 5] was 0.19. The Cholesterol-free [2, 7] was 1.397 and the Difference ([2]; complete vs cholesterol-free media, greater than 0 enhanced anti-cancer activity, about 0 neutral, below 0 antagonists) was −0.34.
For Enasidenib (mesylate), the “Cholesterol-free media + simvastatin (0.04 μM)” value [1, 19] was 1.526, the “Complete Media” value [1, 20] was 1.616 and the Difference [1, 18] was 0.09. The Difference [2, 17] was −0.61, the Cholesterol-free [2, 21] was 1.538 and the Complete [2, 22] was 0.9281.
In the case of Eprosartan (mesylate), the “Cholesterol-free media + simvastatin (0.04 μM)” value [1, 23] is reported as 0.8775, the “Complete Media” value [1, 24] is reported as 0.8724 and the Difference [1, 25] is reported as −0.01. It also gave a Difference [2, 26] of −0.55, a Cholesterol-free [2, 21] of 1.415 and a Complete [2, 22] of 0.8697.
For Escitalopram (oxalate), the “Cholesterol-free media + simvastatin (0.04 μM)” value [1, 3] was 0.9976, the Difference [1, 5] was 0.04 and the Difference [2, 6] was −0.01. The Cholesterol-free [2, 15] was 1.284 and the Complete [2, 16] was 1.269.
With Estradiol (cypionate) the “Cholesterol-free media + simvastatin (0.04 μM)” value [1, 8] was 0.9809, the “Complete Media” value [1, 11] was 0.8945 and the Difference [1, 14] was −0.09. It also gave a Difference [2, 17] of −0.22, a Cholesterol-free [2, 7] of 1.127 and a Complete ([2]; NCI-H292 cells, complete media) of 0.9066.
In the case of Estramustine (phosphate sodium), the “Cholesterol-free media + simvastatin (0.04 μM)” value [1] is reported as 1.251, the Difference [1] is reported as −0.18 and the Cholesterol-free [2] is reported as 1.196. The Complete [2] was 0.9487 and the Difference [2] was −0.25.
Fenoldopam (mesylate) was tested, and the “Cholesterol-free media + simvastatin (0.04 μM)” value [1, 12] was 1.028, the “Complete Media” value [1, 13] was 0.7708 and the Difference [1, 27] was −0.26. The Difference [2, 9] was −0.12, the Cholesterol-free [2, 10] was 0.8131 and the Complete [2, 11] was 0.6882.
In the case of Fenticonazole (Nitrate), the “Cholesterol-free media + simvastatin (0.04 μM)” value [1, 8] is reported as 0.6564, the “Complete Media” value [1, 11] is reported as 1.167 and the Difference [1, 5] is reported as 0.51. For the same substance, the Cholesterol-free [2, 15] was 0.9899 and the Difference [2, 28] was 0.08.
With Fesoterodine (fumarate) the “Cholesterol-free media + simvastatin (0.04 μM)” value [1, 8] was 0.9771, the “Complete Media” value [1, 11] was 1.278 and the Difference [1, 18] was 0.30. For the same substance, the Difference [2, 17] was −0.24, the Cholesterol-free [2, 7] was 1.247 and the Complete ([2]; NCI-H292 cells, complete media) was 1.003.
Flecainide (acetate) was tested, and the “Cholesterol-free media + simvastatin (0.04 μM)” value [1, 8] was 1.399, the “Complete Media” value [1, 11] was 2.119 and the Difference [1, 5] was 0.72. It also gave a Cholesterol-free [2, 15] of 0.7015, a Complete [2, 16] of 1.125 and a Difference [2, 28] of 0.42.
In the case of Fludarabine (phosphate), the “Cholesterol-free media + simvastatin (0.04 μM)” value [1, 19] is reported as 1.095, the “Complete Media” value [1, 20] is reported as 1.138 and the Difference [1, 18] is reported as 0.04. For the same substance, the Difference [2, 17] was −0.10 and the Complete [2, 11] was 0.9769.
In the case of Flupirtine (Maleate), the “Cholesterol-free media + simvastatin (0.04 μM)” value [1, 3] is reported as 0.9024, the “Complete Media” value [1, 4] is reported as 0.9412 and the Difference [1, 5] is reported as 0.04. For the same substance, the Difference [2, 26] was −0.56 and the Cholesterol-free [2, 21] was 1.589.
Fluvoxamine (maleate) was tested, and the “Cholesterol-free media + simvastatin (0.04 μM)” value [1, 23] was 0.9929, the “Complete Media” value [1, 24] was 0.9426 and the Difference [1, 25] was −0.05. For the same substance, the Difference [2, 9] was −0.11 and the Cholesterol-free [2, 10] was 1.142.
For Gabexate (mesylate), the “Cholesterol-free media + simvastatin (0.04 μM)” value [1, 12] was 1.435, the “Complete Media” value [1, 13] was 1.185 and the Difference [1, 27] was −0.25. For the same substance, the Difference [2, 9] was −0.15, the Cholesterol-free [2, 10] was 1.126 and the Complete [2, 11] was 0.973.
